Key:
Type in all cases: in vivo
[1] = determination of glucose elimination via urine in CD1-mice
Description: The animals which were used in the experiments described below received, in addition to sufficient water, a standard feed (“Rat and Mouse Breeder and Grower Diet” supplied by Special Diets Services Ltd., UK). Determination of Glucose Elimination via Urine In this experiment, 4 groups of 5 CD1-mice each (20—25 g, supplied by Harlan, UK) were transferred into metabolism cages and initially acclimatized for 24 hours. By pharyngeal tube, animals were then administered 100 mg/kg of body weight of the active compound IIIc.1, dissolved or suspended in 0.25% strength aqueous hydroxyethylcellulose (CELLOSIZE supplied by UCC). For comparison, 0.25% strength aqueous Cellosize without active compound was administered to the other 10 mice. The urine was subsequently collected for 24 hours and its total volume was measured. In each case […] of urine were examined for their glucose content.

[2] = effect on the plasma glucose and insulin level in diabetes mice; details: homocygotic diabetes mice, not fed for one night; by pharyngeal tube in 0.25% hydroxyethylcellulose; blood collected 2 and 4 hours after treatment
Description: The animals which were used in the experiments described below received, in addition to sufficient water, a standard feed (“Rat and Mouse Breeder and Grower Diet” supplied by Special Diets Services Ltd., UK). Effect of the active compounds according to the invention on the plasma glucose and insulin level The laboratory animals used were homocygotic diabetes mice (40—60 g, supplied by Harlan UK) which were initially not fed for one night and then separated into different groups. The active compounds were administered as a solution or suspension in 0.25% strength aqueous hydroxyethylcellulose (CELLOSIZE supplied by UCC) using a pharyngeal tube, namely at 5 ml/kg of body weight. 2 and 4 hours after the treatment, approximately 50 μl each of blood were collected from the tip of the tail in capillary tubes for the collection of blood containing lithium heparin (supplied by Sarstedt, “Microvette CB300LH”). Plasma samples (5 μl) were immediately tested for their glucose content. A further 10 μl were stored in an Eppendorf tube at (−70)° C. until the plasma glucose and insulin content were determined.

[3] = test system: Solanum nigrum; assay: greenhouse experiment, post-emergence treatment (herbicidal activity); details: Solanum nigrum (black nightshade), 0.125 kg/ha of a.s.
Description: (§1) The herbicidal activity of the substituted 3-benzylpyrazoles I was demostrated by the following greenhouse experiments: The culture containers used were plastic flowerpots containing loamy soil with approximately 3.0% of humus as the substrate. The seeds of the test plants were sown separately for each species. For the post-emergence treatment, the test plants were first grown to a plant height of 3 to 15 cm, depending on the plant habit, and only then treated with the active ingredients which had been suspended or emulsified in water. The test plants for this purpose were either sown directly and grown in the same containers, or they were first grown separately as seedlings and transplanted into the test containers a few days prior to treatment. The rate of application for the post-emergence treatment was 0.125 kg/ha of a.s. (active substance). Depending on the species, the plants were kept at 10-25° C. or 20-35° C. The test period extended over 2 to 4 weeks. During this time, the plants were tended, and their response to the individual treatments was evaluated. Evaluation was carried out using a scale from 0 to 100. 100 means no emergence of the plants, or complete destruction of at least the aerial parts, and 0 means no damage, or normal course of growth. The plants used in the greenhouse experiments belonged to the following species: [table]

[4] = test system: Abutilon theophrasti; assay: as above; details: Abutilon theophrasti (velvet leaf), 0.125 kg/ha of a.s.
Description: as §1

[5] = test system: Amaranthus retroflexus; assay: as above; details: Amaranthus retroflexus (redroot pigweed), 0.125 kg/ha of a.s.
Description: as §1

[6] = test system: Setaria viridis; assay: as above; details: Setaria viridis (green foxtail), 0.125 kg/ha of a.s.
Description: as §1

[7] = 10 CD1-mice, 100 mg/kg of body weight by pharyngeal tube, urine collected for 24 hours

Structure (SMILES) | glucose concentration of the urine [1, 7] | total elimination of glucose [1, 7] | increase of the elimination of glucose (via urine) ([1]; CD1-mice, 100 mg/kg by pharyngeal tube, 24 hours, versus Cellosize without active compound) | plasma insulin level [2] | herbicidal activity [3] | herbicidal activity [4] | herbicidal activity [5] | herbicidal activity [6]
Cn1c(=O)cc(Cc2cccc(Cl)c2Cl)n1C(F)F [IIIc.1, 5-(2,3-Dichlorobenzyl)-1-difluoromethyl-1,2-dihydro-2-methyl-3H-pyrazol-3-one] | 17.62 mmol/L | 70.48 µmol | 52% | substantially unchanged | – | – | – | –
Cn1nc(Cc2cccc(Cl)c2Cl)c(Cl)c1OC(F)F [Ia.1, 4-Chloro-3-(2,3-dichlorobenzyl)-5-difluoromethoxy-1-methyl-1H-pyrazole] | – | – | – | substantially unchanged | very good | very good | very good | very good
Cn1nc(Cc2cccc(Cl)c2Cl)cc1OC(F)F [Ic.1, 3-(2,3-Dichlorobenzyl)-5-difluoromethoxy-1-methyl-1H-pyrazole] | – | – | – | substantially unchanged | – | – | – | –
